{
  "source": "patent US7271192B2",
  "about": "“Substituted 2-pyrrolidine-2-yl-1H-indole compounds” (Gruenenthal GmbH, priority 2001, dated 2007)",
  "data": [
    {"molecular_target": "T1, nNOS (Rattus norvegicus, UniProt P29476)", "T1 construct": "Rat cerebelli were used as the starting tissue; from tissue; host or cells: rat cerebellum (20,000 g supernatant of homogenate)", "assay": "NOS assay (HTS NOS assay, radioactive arginine, filter plate)", "assay_type": "biochemical", "settings": "enzyme preparation from rat cerebelli", "experimental": "This assay allows the determination of the percentage inhibition of NO synthase by an active compound by means of measurement of the NOS activity under the action of the active compound. In this procedure, NO synthase is mixed together with radioactively labelled arginine and the active compound under suitable conditions. After discontinuation of the NO formation reaction at a given point in time, the amount of unreacted arginine is determined directly or indirectly. Comparison of this amount with the amount of arginine which remains in a sample from the mixture of NOS and arginine without the addition of active compound and under otherwise identical conditions gives the % inhibition of NO synthase by the active compound tested. This assay can be carried out as follows:\nincubation of NO synthase with labelled arginine as the substrate in a reaction vessel,\nseparation of the labelled arginine from the labelled citrulline possibly formed as the product of the enzymatic reaction at a point in time at which the concentration of citrulline increases,\nmeasurement of the amount of arginine separated off in the particular case.\nThe separation is carried out via a filter plate membrane.\nThis NOS assay is particularly suitable for a “high throughput screening” (HTS) on microtitre plates (MTP).\nIn this HTS NOS assay, radioactive arginine is used as the substrate. The assay volume can be chosen in the range between 25 μl and 250 μl, depending on the nature of the microtitre plate (MTP). Cofactors and coenzymes are added, depending on the enzyme source used. The incubation of the batches in this microtitre plate (assay MTP) according to step (a) is carried out at room temperature and is between 5 and 60 minutes, depending on the enzyme activity (units) used. At the end of the incubation (step (a)), the plate is placed in a cell harvester equipped with an MTP which has a cation exchange membrane as the filter base (filter MTP). All the batches of the assay MTP are transferred into this filter MTP and filtered with suction over a cation exchanger filter plate, a paper filter loaded with phosphate groups. The filter MTP is then washed with buffer or water. The arginine substrate which remains is bonded to the cation exchanger with the aid of this procedure, while the radioactive citrulline formed enzymatically is washed out quantitatively. After drying of the filter MTP and addition of scintillation liquid, the arginine bonded can be counted on a scintillation counter. A non-inhibited NOS reaction is reflected in a low radioactivity. An inhibited enzyme reaction means that the radioactive arginine has not been reacted, i.e. there is a high radioactivity on the filter.\nArginine, L-[2,3,4-^3H]-monohydrochloride; order no. NET-1123, NEN • CaCl2, anhydrous; order no. 2388.1000; Merck KGaA • 1,4-dithiothreitol (DTT), order no. 708984; ROCHE • Na2EDTA-dihydrate; order no. 03680; FLUKA • HEPES, order no. H-3375; SIGMA • NADPH, tetrasodium salt; order no. 1585363; ROCHE • TRIS; ORDER no. 93349; FLUKA\nEnzyme preparation buffer: 50 mM Tris-HCl with 1 mM EDTA: The pH of the buffer was adjusted to 7.4 at 4° C.\nIncubation buffer (medium): 50 mM HEPES with 1 mM EDTA; 1.25 mM CaCl2 and 1 mM dithiothreitol.\nThe pH of the buffer was adjusted to 7.4 at 25° C.\nRat cerebelli were used as the starting tissue. The animals were narcotized and sacrificed, the brain tissue, the cerebellum, was removed, 1 ml of enzyme preparation buffer was added (4° C.) per rat cerebellum and the tissue was broken down with a Polytron homogeniser for 1 min at 6,000 rpm. Centrifugation at 4° C. for 15 min at 20,000 g and subsequent decanting of the supernatant and freezing in portions at −80° C. (precipitate discarded) then took place.\nCompounds according to the invention were tested for nNOS inhibition in the NOS assay described above.", "units": {"inhibition at 10 µM": "%"}, "values": [
      {"smiles": "CCN(CC)CCn1c(C2CCCN2C(=O)c2ccco2)c(-c2ccccc2)c2cc(Cl)ccc21", "note": "(centres unmarked) [Example 9, {2-[5-Chloro-1-(2-diethylamino-ethyl)-3-phenyl-1H-indol-2-yl]-pyrrolidin-1-yl}-furan-2-yl-methanone]", "inhibition at 10 µM": 45},
      {"smiles": "CCOC(=O)CCC(=O)N1CCCC1c1c(-c2ccccc2)c2cc(Cl)ccc2n1CCN(CC)CC", "note": "(centres unmarked) [Example 12, 4-{2-[5-Chloro-1-(2-diethylamino-ethyl)-3-phenyl-1H-indol-2-yl]-pyrrolidin-1-yl)-4-oxo-butyric acid ethyl ester]", "inhibition at 10 µM": 34},
      {"smiles": "CCN(CC)CCn1c(C2CCCN2C(=O)c2ccc(F)cc2)c(-c2ccccc2)c2cc(Cl)ccc21", "note": "(centres unmarked) [Example 13, {2-[5-Chloro-1-(2-diethylamino-ethyl)-3-phenyl-1H-indol-2-yl]-pyrrolidin-1-yl}-(4-fluoro-phenyl)-methanone]", "inhibition at 10 µM": 47},
      {"smiles": "CCN(CC)CCn1c(C2CCCN2C(=O)C2CCC2)c(-c2ccccc2)c2cc(Cl)ccc21", "note": "(centres unmarked) [Example 15, {2-[5-Chloro-1-(2-diethylamino-ethyl)-3-phenyl-1H-indol-2-yl]-pyrrolidin-1-yl}-cyclobutyl-methanone]", "inhibition at 10 µM": 38},
      {"smiles": "CCN(CC)CCn1c(C2CCCN2C(=O)c2ccc(Cl)nc2)c(-c2ccccc2)c2cc(Cl)ccc21", "note": "(centres unmarked) [Example 17, {2-[5-Chloro-1-(2-diethylamino-ethyl)-3-phenyl-1H-indol-2-yl]-pyrrolidin-1-yl)-(6-chloro-pyridin-3-yl)-methanone]", "inhibition at 10 µM": 36},
      {"smiles": "CCCCCC(=O)N1CCCC1c1c(-c2ccccc2)c2cc(Cl)ccc2n1CCN(CC)CC", "note": "(centres unmarked) [Example 20, 1-{2-[5-Chloro-1-(2-diethylamino-ethyl)-3-phenyl-1H-indol-2-yl]-pyrrolidin-1-yl}-hexan-1-one]", "inhibition at 10 µM": 35},
      {"smiles": "CCN(CC)CCn1c(C2CCCN2C(=O)c2cc(OC)cc(OC)c2)c(-c2ccccc2)c2cc(Cl)ccc21", "note": "(centres unmarked) [Example 26, {2-[5-Chloro-1-(2-diethylamino-ethyl)-3-phenyl-1H-indol-2-yl]-pyrrolidin-1-yl}-(3,5-dimethoxy-phenyl)-methanone]", "inhibition at 10 µM": 51},
      {"smiles": "CCOc1ccc(C(=O)N2CCCC2c2c(-c3ccccc3)c3cc(Cl)ccc3n2CCN(CC)CC)cc1", "note": "(centres unmarked) [Example 28, {2-[5-Chloro-1-(2-diethylamino-ethyl)-3-phenyl-1H-indol-2-yl]-pyrrolidin-1-yl}-(4-ethoxy-phenyl)-methanone]", "inhibition at 10 µM": 41},
      {"smiles": "COCCOCC(=O)N1CCCC1c1c(-c2ccccc2)c2cc(Cl)ccc2n1C", "note": "(centres unmarked) [Example 35, 1-[2-(5-Chloro-1-methyl-3-phenyl-1H-indol-2-yl)-pyrrolidin-1-yl]-2-(2-methoxy-ethoxy)-ethanone]", "inhibition at 10 µM": 41},
      {"smiles": "Cn1c(C2CCCN2C(=O)C2CC2)c(-c2ccccc2)c2cc(Cl)ccc21", "note": "(centres unmarked) [Example 48, [2-(5-Chloro-1-methyl-3-phenyl-1H-indol-2-yl)-pyrrolidin-1-yl]-cyclopropyl-methanone]", "inhibition at 10 µM": 35},
      {"smiles": "CC#CCn1c(C2CCCN2C(=O)COC)c(-c2ccccc2)c2cc(Cl)ccc21", "note": "(centres unmarked) [Example 73, 1-[2-(1-But-2-ynyl-5-chloro-3-phenyl-1H-indol-2-yl)-pyrrolidin-1-yl]-2-methoxy-ethanone]", "inhibition at 10 µM": 54}
    ]}
  ]
}
